Results as given in patent publication US20200179319A1, “PHARMACEUTICAL FORMULATIONS AND THEIR USE” (Signum Biosciences, Inc., priority 2016, published 2020).

Columns and labels:
Type in all cases: physicochemical
[1] = Screening Study (Example 5): sulfoxide formed in API solution with each agent, HPLC; details: for (% area sulfoxide for each agent/% area sulfoxide in Blank) / Average % area sulfoxide for 3 runs per agent: 24 hours exposed to air at room temperature, not protected from light; for % area sulfoxide relative to % area Control: Control: no agent, stored at 5° C. and protected from light; for Average % area sulfoxide for 3 runs per agent: pH 7.4 to 7.5 buffer, API disodium salt solution plus agent
Protocol: A buffer solution was prepared by adding 0.72 g of Na2HPO4, 0.24 g KH2PO4 and 500 mL of deionized water into a container and mixing. The pH of the mixture was adjusted to 7.4 to 7.5 using NaOH and H3PO4.
(§1) A solution of each agent in the table below was prepared by adding 500 mg or each agent into a 25 mL volumetric flask and filling the flask to volume by the addition of the prepared buffer solution.
A 6% solution of API was prepared by adding 3.0 g the disodium salt of 4-(((R)-1-carboxy-2-(((2E,6E)-3,7,11-trimethyldodeca-2,6,10-trien-1-yl)thio)ethyl)amino)-4-oxobutanoic acid to a 50 mL volumetric flask filling the flask to volume by the addition of argon-sparged methanol, followed by mixing.
(§2) A screen was performed for each agent as follows: (1) 2.5 mL of the stock solution of API and 2.5 mL of each agent was added into scintillation vial, the vial was capped and the contents were mixed (repeated three times for each agent); and (2) allowing each resulting mixture to sit for 24 hours exposed to air at room temperature and not protected from light. A blank solution was prepared (3×) by adding buffer solution into the 100 mL volumetric flask in place of the agent and was stored under the same conditions as the other samples, 24 hours exposed to air at room temperature and not protected from light. After 24 hours, the contents of each vial were transferred to a 100 mL volumetric flask and each volumetric flask was filled to volume by the addition of methanol, and an aliquot of each mixture was removed and analyzed by HPLC.
The area of the sulfoxide of 4-(((R)-1-carboxy-2-(((2E,6E)-3,7,11-trimethyldodeca-2,6,10-trien-1-yl)thio)ethyl)amino)-4-oxobutanoic acid produced in each solution was calculated as follows: % area sulfoxide=Rsulfoxide/(Rparent+Rsulfoxide), wherein Rsuffoxide=the area under the response of the sulfoxide in the HPLC trace, and Rparent=the area under the response of 4-(((R)-1-carboxy-2-(((2E,6E)-3,7,11-trimethyldodeca-2,6,10-trien-1-yl)thio)ethyl)amino)-4-oxobutanoic acid in the HPLC trace. The control sample in Table 8 contained no agent, was stored at 5° C. and protected from light.

[2] = Screening Study (Example 3): sulfoxide formed in API solution with each agent, HPLC; details: 24 hours exposed to air at room temperature, not protected from light; for Average % area sulfoxide for 3 runs per agent: API disodium salt solution plus agent
Protocol: A buffer solution was prepared by adding 0.72 g of Na2HPO4, 0.24 g KH2PO4 and 500 mL of deionized water into a container and mixing.
as §1
A 6% solution of API was prepared by adding 3.0 g the disodium salt of 4-(((R)-1-carboxy-2-(((2E,6E)-3,7,11-trimethyldodeca-2,6,10-trien-1-yl)thio)ethyl)amino)-4-oxobutanoic acid to a 50 mL volumetric flask and filling the flask to volume by the addition of methanol, followed by mixing.
as §2, with “a 100 mL volumetric flask” for “scintillation vial, the vial was capped”, “agent.” for “agent and was stored under the same conditions as the other samples, 24 hours exposed to air at room temperature and not protected from light.”, “hours,” for “hours, the contents of each vial were transferred to a 100 mL volumetric flask and”
The area of the sulfoxide of 4-(((R)-1-carboxy-2-(((2E,6E)-3,7,11-trimethyldodeca-2,6,10-trien-1-yl)thio)ethyl)amino)-4-oxobutanoic acid produced in each solution was calculated as follows: % area sulfoxide=Rsulfoxide/(Rparent+Rsulfoxide), wherein Rsuffoxide=the area under the response of the sulfoxide in the HPLC trace, and Rparent=the area under the response of 4-(((R)-1-carboxy-2-(((2E,6E)-3,7,11-trimethyldodeca-2,6,10-trien-1-yl)thio)ethyl)amino)-4-oxobutanoic acid in the HPLC trace.

[3] = Stability Study 2 conducted at 5° C.: storage stability of a formulation comprising the disodium salt, HPLC
Protocol: The stability of a formulation comprising the disodium salt of 4-(((R)-1-carboxy-2-(((2E,6E)-3,7,11-trimethyldodeca-2,6,10-trien-1-yl)thio)ethyl)amino)-4-oxobutanoic acid was determined after storage at 5° C. for a period of 1 month, 2 months, 3 months, 6 months, 9 months, 12 months, 18 months, and 24 months. In each case, the percentage of 4-(((R)-1-carboxy-2-(((2E,6E)-3,7,11-trimethyldodeca-2,6,10-trien-1-yl)thio)ethyl)amino)-4-oxobutanoic acid remaining at each time point was determined by use of HPLC. Each of the percentages in the table below are expressed at the weight percentage of the component as compared to the total weight of the composition.

[4] = Stability Study 1: storage stability of a formulation comprising the disodium salt, HPLC; details: 25° C., heading 30° C.
Protocol: The stability of a formulation comprising the disodium salt of […] In each case, the percentage of 4-(((R)-1-carboxy-2-(((2E,6E)-3,7,11-trimethyldodeca-2,6,10-trien-1-yl)thio)ethyl)amino)-4-oxobutanoic acid remaining at each time point was determined by use of HPLC.

[5] = API stock in argon-sparged methanol

Compound	(% area sulfoxide for each agent/% area sulfoxide in Blank) [1, 5]	% area sulfoxide relative to % area Control [1]	Average % area sulfoxide for 3 runs per agent [1]	% area sulfoxide relative to % area Control [2]	(% area sulfoxide for each agent/% area sulfoxide in Blank) [2]	Average % area sulfoxide for 3 runs per agent [2]	further results
O=C1O[C@H]([C@@H](O)CO)C(O)=C1O [Ascorbic acid]	2.39	1.812	2.771%				
Cc1cc(C(C)(C)C)c(O)c(C(C)(C)C)c1 [Butylated hydroxytoluene (BHT), Butylated hydroxytoluene]	1.02	0.227	1.186%	0.115	0.97	1.092%	
O=C(CO)[C@@H](O)[C@H](O)[C@H](O)CO [Fructose]				0.146	About 1	1.123%	
O=S([O-])([O-])=S.[Na+].[Na+] [Sodium thiosulfate]		0.158	1.117%	0.055	0.92	1.032%	(% area sulfoxide for each agent/% area sulfoxide in Blank) [1]: 0.96
CC(C)=CCC/C(C)=C/CC/C(C)=C/C[S+]([O-])C[C@H](NC(=O)CCC(=O)O)C(=O)O (stereo partly drawn) [Sulfoxide of 4-(((R)-1-carboxy-2-(((2E,6E)-3,7,11-trimethyldodeca-2,6,10-trien-1-yl)thio)ethyl)amino)-4-oxobutanoic acid]							weight percentage of the component, 1 months ([3]; 1 month at 5° C.): 0.039 weight percentage; weight percentage of the component, 2 months ([3]; 2 months at 5° C.): 0.076 weight percentage; weight percentage of the component, 3 months ([3]; 3 months at 5° C.): 0.112 weight percentage; weight percentage of the component, 6 months ([3]; 6 months at 5° C.): 0.048 weight percentage; weight percentage of the component, 9 months ([3]; 9 months at 5° C.): 0.049 weight percentage; weight percentage of the component, 12 months ([3]; 12 months at 5° C.): 0.050 weight percentage; weight percentage of the component, 18 months ([3]; 18 months at 5° C.): 0.052 weight percentage; weight percentage of the component, 24 months ([3]; 24 months at 5° C.): 0.044 weight percentage; weight percentage of the component, Initial ([3]; initial, storage at 5° C.): 0.037 weight percentage; % weight in formulation after 1 month ([4]; after 1 month storage): 0.031%; % weight in formulation after 3 months ([4]; after 3 months storage): 0.113%; % weight in formulation after 6 months ([4]; after 6 months storage): 0.053%; % weight in formulation after 9 months ([4]; after 9 months storage): 0.134%; Initial (% weight of formulation) ([4]; initial, formulation comprising the disodium salt): 0.037%
CC(C)(C)c1cc(O)ccc1O [Tert-butylhydroquinone (TBHQ), Tert-butylhydroquinone]	7.38	7.587	8.546%				
CC(=O)Oc1c(C)c(C)c2c(c1C)CCC(C)(CCC[C@H](C)CCC[C@H](C)CCCC(C)C)O2 (some centres unmarked) [Vitamin E acetate]	1.01	0.208	1.167%				
O=S([O-])CO.[Na+] [sodium hydroxymethylsulfinate]				0.571	1.37	1.548%	
